Assays:
[1] = product insert; cited from earlier work
[2] = depending on fat content of the meal; cited from earlier work
[3] = oral drug, poor absorption; cited from earlier work
CYP3A4 liver enzyme = CYP3A4 liver enzyme (Homo sapiens, UniProt P08684); settings: cited from earlier work
[4] = Persistence in plasma study, PBS buffer incubation; assay type: physicochemical; settings: for Peak Area Ratio (Analyte/IS): PBS Buffer (pH 7.4), 37° C.; for % Remaining after 24-hr Incubation at 37° C.: PBS buffer
[5] = Persistence in plasma (incubation at 37° C., LC-MS/MS); assay type: in vitro ADME, human; settings: for Peak Area Ratio (Analyte/IS): Human Plasma
Experimental: Test compounds and control (procaine) were incubated at a concentration of 10 μM with human plasma. […]
After quenching by acetonitrile, the plates were capped, vortexed, and centrifuged at 3000 rpm for 10 minutes. The supernatant was injected into LC-MS/MS.

Chain of CYP3A4 liver enzyme (P08684 whole entry): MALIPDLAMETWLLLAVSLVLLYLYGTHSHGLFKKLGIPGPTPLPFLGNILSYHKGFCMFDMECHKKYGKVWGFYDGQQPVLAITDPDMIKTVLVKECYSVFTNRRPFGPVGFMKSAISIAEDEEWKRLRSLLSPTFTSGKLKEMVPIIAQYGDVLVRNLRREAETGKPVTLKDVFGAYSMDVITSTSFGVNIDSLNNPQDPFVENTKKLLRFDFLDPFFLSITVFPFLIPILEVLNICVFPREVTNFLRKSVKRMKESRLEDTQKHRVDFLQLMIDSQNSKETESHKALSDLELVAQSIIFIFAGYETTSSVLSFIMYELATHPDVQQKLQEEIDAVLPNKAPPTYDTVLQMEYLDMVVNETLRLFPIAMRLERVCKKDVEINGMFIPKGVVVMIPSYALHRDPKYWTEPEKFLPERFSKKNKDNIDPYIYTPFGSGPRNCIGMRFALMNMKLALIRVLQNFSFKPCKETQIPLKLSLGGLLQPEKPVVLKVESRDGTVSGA

## CC(=O)O[C@H]1CC[C@@]2(C)C(=CC[C@@H]3[C@@H]2CC[C@]2(C)C(c4cccnc4)=CC[C@@H]32)C1 [abiraterone acetate]
[1]
  Solubility in water: practically insoluble
[2]
  Food-effect: five- to ten-fold
[3]
  Administered drug excreted: 77%
CYP3A4 liver enzyme
  Substrate of CYP3A4: substrate

## CCN(CC)CCOC(=O)c1ccc(N)cc1 [Procaine]
[4]; Replicate 1
  Peak Area Ratio (Analyte/IS): 0.0916
  % Remaining after 24-hr Incubation at 37° C.: 20.65%
[4]; Replicate 2
  Peak Area Ratio (Analyte/IS): 0.357
  % Remaining after 24-hr Incubation at 37° C.: 80.5%
[4]; Average
  % Remaining after 24-hr Incubation at 37° C.: 51%
[5]; 0 hr, Replicate 1
  Peak Area Ratio (Analyte/IS): 0.443
[5]; 0 hr, Replicate 2
  Peak Area Ratio (Analyte/IS): 0.444
[5]; 24 hr, 37° C., Replicate 1
  Peak Area Ratio (Analyte/IS): 0.0
[5]; 24 hr, 37° C., Replicate 2
  Peak Area Ratio (Analyte/IS): 0.0
[5]; human, plasma, 24 h, 10 μM
  % Remaining after 24-hr Incubation at 37° C.: 0.0%
